Assay results reported in PubChem BioAssay (NCI).
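48-hour exposure; five concentrations; linearly interpolated endpoints. TGI: total growth inhibition.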

How the values were obtained:
Assay in all cases: inhibition of tumour cell growth, NCI panel, 48 h
LOX IMVI melanoma = tested on: LOX IMVI melanoma
SW-620 colon = tested on: SW-620 colon
U251 CNS = tested on: U251 CNS
OVCAR-4 ovarian = tested on: OVCAR-4 ovarian
MDA-MB-231 breast = tested on: MDA-MB-231 breast
UO-31 renal = tested on: UO-31 renal
HCT-15 colon = tested on: HCT-15 colon
SF-295 CNS = tested on: SF-295 CNS
IGROV1 ovarian = tested on: IGROV1 ovarian
TK-10 renal = tested on: TK-10 renal
KM12 colon = tested on: KM12 colon
MCF7 breast = tested on: MCF7 breast
HOP-92 NSCLC = tested on: HOP-92 NSCLC
MALME-3M melanoma = tested on: MALME-3M melanoma
SK-MEL-2 melanoma = tested on: SK-MEL-2 melanoma
K-562 leukemia = tested on: K-562 leukemia
NCI-H23 lung = tested on: NCI-H23 lung
CCRF-CEM leukemia = tested on: CCRF-CEM leukemia
NCI-H522 lung = tested on: NCI-H522 lung
T-47D breast = tested on: T-47D breast
MDA-N = tested on: MDA-N
NCI-H460 lung = tested on: NCI-H460 lung
SK-OV-3 ovarian = tested on: SK-OV-3 ovarian
HCT-116 colon = tested on: HCT-116 colon
SNB-19 CNS = tested on: SNB-19 CNS
OVCAR-5 ovarian = tested on: OVCAR-5 ovarian
NCI-H226 lung = tested on: NCI-H226 lung
SN12C renal = tested on: SN12C renal
SF-268 CNS = tested on: SF-268 CNS
HCC-2998 colon = tested on: HCC-2998 colon
A549 NSCLC = tested on: A549 NSCLC
SK-MEL-28 melanoma = tested on: SK-MEL-28 melanoma
UACC-62 melanoma = tested on: UACC-62 melanoma
NCI/ADR-RES ovarian = tested on: NCI/ADR-RES ovarian
HT29 colon = tested on: HT29 colon
BT-549 breast = tested on: BT-549 breast
OVCAR-8 ovarian = tested on: OVCAR-8 ovarian
ACHN renal = tested on: ACHN renal
786-0 renal = tested on: 786-0 renal
M14 melanoma = tested on: M14 melanoma
SNB-75 CNS = tested on: SNB-75 CNS
EKVX NSCLC = tested on: EKVX NSCLC
CAKI-1 renal = tested on: CAKI-1 renal
MOLT-4 leukemia = tested on: MOLT-4 leukemia
A498 renal = tested on: A498 renal
SF-539 CNS = tested on: SF-539 CNS
SK-MEL-5 melanoma = tested on: SK-MEL-5 melanoma
OVCAR-3 ovarian = tested on: OVCAR-3 ovarian
COLO 205 colon = tested on: COLO 205 colon
UACC-257 melanoma = tested on: UACC-257 melanoma
PC-3 prostate = tested on: PC-3 prostate
HL-60(TB) leukemia = tested on: HL-60(TB) leukemia
MDA-MB-435 = tested on: MDA-MB-435
DU-145 prostate = tested on: DU-145 prostate
HS 578T breast = tested on: HS 578T breast
HOP-62 NSCLC = tested on: HOP-62 NSCLC
RPMI-8226 leukemia = tested on: RPMI-8226 leukemia
RXF 393 renal = tested on: RXF 393 renal

Measured: TGI

C/C=C1/C[C@@H](C)[C@@](C)(O)C(=O)OCC2=CC[N+]3([O-])CC[C@@H](OC1=O)[C@@H]23 (stereo partly drawn)
not listed: HOP-62 NSCLC | RPMI-8226 leukemia | RXF 393 renal
> 100 µM: all other assays above

O=c1ccn(C2OC(CN(O)CCC3C(O)C(CO)OC3n3ccc(=O)[nH]c3=O)C(O)C2O)c(=O)[nH]1 (stereo not drawn)
not listed: SW-620 colon | CCRF-CEM leukemia | NCI-H522 lung | SK-MEL-28 melanoma | UACC-62 melanoma | MOLT-4 leukemia | SF-539 CNS | SK-MEL-5 melanoma | UACC-257 melanoma | HL-60(TB) leukemia | RXF 393 renal
> 100 µM: all other assays above

O=C(O)c1ccc(C=C2Sc3ccccc3S2)cc1
44.9 µM: MDA-MB-435
39.6 µM: A498 renal
83 µM: OVCAR-3 ovarian
95.2 µM: UACC-62 melanoma
42.5 µM: HCC-2998 colon
81.2 µM: MDA-N
74.2 µM: ACHN renal
not listed: SK-MEL-28 melanoma | SNB-75 CNS
> 100 µM: all other assays above
